Measured values reported in patent publication US20260092071A1, “COMPOUNDS AND COMPOSITIONS AS SMARCA2/4 DEGRADERS AND USES THEREOF” (REGENTS OF THE UNIVERSITY OF MICHIGAN, priority 2022, published 2026).
Where two headings read alike, the source gives them in different places.

What was measured:
[1] = target: SMARCA4 (Homo sapiens, UniProt P51532); assay: HiBiT assay for protein degradation, Hela SMARCA4-HiBiT cells (A series); format: cell-based; set-up: fuse HiBiT to the carboxy terminus of SMARCA2 (Promega CS302365) or SMARCA4 (Promega CS3023225); host or cells: HeLa (CRISPR/Cas9 HiBiT knock-in); settings: for DC50: read-out: SMARC A4 Hela HiBit DC50
Experimental: (§1) Hela cells were genetically modified via CRISPR/Cas9 to fuse HiBiT to the carboxy terminus of SMARCA2 (Promega CS302365) or SMARCA4 (Promega CS3023225). Cells were cultured in DMEM containing 10% FBS and 1% (Vol:Vol) penicillin-streptomycin. […] At the end of experiment, levels of SMARCA2 or SMARCA4 expression were assessed with Nano-Glo® HiBiT Lytic Detection Assay (Promega N3050). IC50 was obtained using the GraphPad Prism data analysis software.

[2] = target: SMARCA2 (Homo sapiens, UniProt P51531); assay: HiBiT assay for protein degradation, Hela SMARCA2-HiBiT cells (A series); format: cell-based; set-up: Hela cells were genetically modified via CRISPR/Cas9 to fuse HiBiT to the carboxy terminus of SMARCA2; host or cells: HeLa (CRISPR/Cas9 HiBiT knock-in); settings: for DC50: read-out: SMARC A2 Hela HiBit DC50; for Dmax: read-out: SMARC A2 Hela HiBit Dmax (%)
Experimental: as §1

[3] = Hela SMARCA4-HiBiT cells, 24 hours treatment
[4] = Hela SMARCA4-HiBiT cells, 24 hours treatment, read-out: SMARC A4 Hela HiBit Dmax
[5] = Hela SMARCA2-HiBiT cells, 24 hours treatment

SMARCA4, sequence (P51532 whole entry): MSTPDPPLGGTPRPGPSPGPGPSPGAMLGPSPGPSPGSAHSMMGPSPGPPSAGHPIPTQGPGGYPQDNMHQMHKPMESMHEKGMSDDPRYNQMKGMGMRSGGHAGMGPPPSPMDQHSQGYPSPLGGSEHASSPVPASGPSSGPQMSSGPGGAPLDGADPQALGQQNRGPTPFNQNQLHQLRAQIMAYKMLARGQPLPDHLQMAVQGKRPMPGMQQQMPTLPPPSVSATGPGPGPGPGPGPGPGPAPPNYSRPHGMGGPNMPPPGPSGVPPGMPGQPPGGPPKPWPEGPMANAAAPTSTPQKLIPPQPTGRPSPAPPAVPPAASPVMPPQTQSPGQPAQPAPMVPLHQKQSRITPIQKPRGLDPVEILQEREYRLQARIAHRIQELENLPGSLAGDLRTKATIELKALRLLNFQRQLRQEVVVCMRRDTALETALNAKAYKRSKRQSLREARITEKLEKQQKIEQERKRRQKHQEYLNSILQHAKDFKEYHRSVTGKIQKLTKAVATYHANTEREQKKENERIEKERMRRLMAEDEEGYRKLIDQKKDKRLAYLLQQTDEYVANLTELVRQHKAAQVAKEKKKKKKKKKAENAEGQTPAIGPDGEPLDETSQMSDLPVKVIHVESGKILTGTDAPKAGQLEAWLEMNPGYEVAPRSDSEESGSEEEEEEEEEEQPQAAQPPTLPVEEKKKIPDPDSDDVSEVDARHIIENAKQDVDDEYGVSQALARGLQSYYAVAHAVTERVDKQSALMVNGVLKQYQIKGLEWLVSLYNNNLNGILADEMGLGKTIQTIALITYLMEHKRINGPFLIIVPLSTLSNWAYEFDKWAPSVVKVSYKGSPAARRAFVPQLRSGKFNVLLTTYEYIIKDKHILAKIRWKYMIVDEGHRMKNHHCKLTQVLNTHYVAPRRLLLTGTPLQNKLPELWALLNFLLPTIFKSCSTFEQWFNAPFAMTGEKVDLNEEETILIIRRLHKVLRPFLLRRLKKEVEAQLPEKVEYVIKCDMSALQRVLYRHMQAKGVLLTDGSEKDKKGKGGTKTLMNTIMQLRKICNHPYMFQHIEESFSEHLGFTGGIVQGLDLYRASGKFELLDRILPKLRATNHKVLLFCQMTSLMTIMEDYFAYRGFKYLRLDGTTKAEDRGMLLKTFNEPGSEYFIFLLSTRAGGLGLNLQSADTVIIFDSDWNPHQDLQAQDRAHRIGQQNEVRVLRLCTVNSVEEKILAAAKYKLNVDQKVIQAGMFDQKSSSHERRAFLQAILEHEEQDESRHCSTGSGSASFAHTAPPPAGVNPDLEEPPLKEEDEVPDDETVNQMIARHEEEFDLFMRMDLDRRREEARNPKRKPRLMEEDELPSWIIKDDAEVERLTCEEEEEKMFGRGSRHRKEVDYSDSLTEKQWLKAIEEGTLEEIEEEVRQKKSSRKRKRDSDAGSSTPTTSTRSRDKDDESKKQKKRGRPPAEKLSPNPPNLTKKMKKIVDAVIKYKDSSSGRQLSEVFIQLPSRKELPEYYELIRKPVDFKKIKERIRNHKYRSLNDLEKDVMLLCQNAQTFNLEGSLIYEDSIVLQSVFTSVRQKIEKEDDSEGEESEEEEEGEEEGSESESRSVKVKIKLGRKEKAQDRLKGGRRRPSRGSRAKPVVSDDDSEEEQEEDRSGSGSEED
SMARCA2, sequence (P51531 whole entry): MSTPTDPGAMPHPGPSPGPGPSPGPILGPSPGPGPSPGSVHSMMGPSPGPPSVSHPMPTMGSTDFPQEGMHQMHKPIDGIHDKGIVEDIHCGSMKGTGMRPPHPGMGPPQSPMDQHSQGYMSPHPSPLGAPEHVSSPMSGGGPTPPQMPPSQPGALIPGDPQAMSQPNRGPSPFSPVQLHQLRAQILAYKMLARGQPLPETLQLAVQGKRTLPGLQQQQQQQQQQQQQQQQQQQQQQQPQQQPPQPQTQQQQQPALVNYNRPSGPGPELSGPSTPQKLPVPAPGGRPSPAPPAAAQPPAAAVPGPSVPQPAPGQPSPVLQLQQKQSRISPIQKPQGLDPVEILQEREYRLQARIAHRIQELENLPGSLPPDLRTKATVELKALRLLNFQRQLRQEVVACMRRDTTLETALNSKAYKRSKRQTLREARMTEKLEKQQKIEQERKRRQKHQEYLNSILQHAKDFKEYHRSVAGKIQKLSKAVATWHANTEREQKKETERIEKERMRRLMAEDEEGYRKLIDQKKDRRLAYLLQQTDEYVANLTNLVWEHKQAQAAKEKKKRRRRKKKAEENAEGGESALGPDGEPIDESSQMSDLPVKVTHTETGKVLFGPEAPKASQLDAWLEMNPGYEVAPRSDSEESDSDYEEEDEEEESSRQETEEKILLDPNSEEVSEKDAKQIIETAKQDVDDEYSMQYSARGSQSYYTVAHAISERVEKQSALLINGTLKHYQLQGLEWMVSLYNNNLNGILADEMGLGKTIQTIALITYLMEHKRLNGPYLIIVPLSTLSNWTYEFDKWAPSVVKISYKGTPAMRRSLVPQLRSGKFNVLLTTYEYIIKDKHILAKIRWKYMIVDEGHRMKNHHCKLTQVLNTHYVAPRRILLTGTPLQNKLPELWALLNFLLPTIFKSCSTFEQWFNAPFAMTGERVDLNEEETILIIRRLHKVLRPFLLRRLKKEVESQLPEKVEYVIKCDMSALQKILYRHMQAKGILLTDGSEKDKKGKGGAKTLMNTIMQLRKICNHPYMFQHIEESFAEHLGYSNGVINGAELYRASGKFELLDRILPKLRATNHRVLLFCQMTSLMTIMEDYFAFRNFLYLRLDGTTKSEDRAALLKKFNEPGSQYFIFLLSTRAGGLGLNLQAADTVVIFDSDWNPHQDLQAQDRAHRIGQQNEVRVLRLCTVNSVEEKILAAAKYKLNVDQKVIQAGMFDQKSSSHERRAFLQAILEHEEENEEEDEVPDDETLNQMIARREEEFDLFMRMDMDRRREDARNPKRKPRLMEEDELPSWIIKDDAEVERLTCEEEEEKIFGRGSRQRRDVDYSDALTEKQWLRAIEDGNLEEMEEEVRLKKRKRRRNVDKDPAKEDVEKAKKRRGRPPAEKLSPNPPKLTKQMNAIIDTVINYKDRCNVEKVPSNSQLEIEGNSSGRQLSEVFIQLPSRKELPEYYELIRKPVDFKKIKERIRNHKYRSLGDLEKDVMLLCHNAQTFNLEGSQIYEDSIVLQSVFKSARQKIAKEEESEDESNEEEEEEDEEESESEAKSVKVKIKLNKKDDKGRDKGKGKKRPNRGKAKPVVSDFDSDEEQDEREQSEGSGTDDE

| Structure (SMILES) | DC50 [1, 3] [nM] | Dmax [1, 4] [%] | DC50 [2, 5] [nM] | Dmax [2, 5] [%] | further results |
| --- | --- | --- | --- | --- | --- |
| Cc1ncsc1-c1ccc([C@H](CN2CCOCC2)NC(=O)[C@@H]2C[C@@H](O)CN2C(=O)[C@H](C2CCOCC2)n2cc([C@H]3CC[C@H](CN4CCC(c5ccc6c(c5)-n5c(nc(=O)c7c(Cl)cccc75)C6(C)C)CC4)CC3)nn2)cc1 [Compound A102, (2S,4R)-1-((S)-2-(4-((1r,4S)-4-((4-(4-chloro-7,7-dimethyl-5-oxo-5,7-dihydroindolo[1,2-a]quinazolin-10-yl)piperidin-1-yl)methyl)cyclohexyl)-1H-1,2,3-triazol-1-yl)-2-(tetrahydro-2H-pyran-4-yl)acetyl)-4-hydroxy-N-((R)-1-(4-(4-methylthiazol-5-yl)phenyl)-2-morpholinoethyl)pyrrolidine-2-carboxamide] | > 1000 | 50 to 69 | < 10 | > 90 |  |
| Cc1ncsc1-c1ccc([C@H](CN2CCOCC2)NC(=O)[C@@H]2C[C@@H](O)CN2C(=O)[C@@H](NC(=O)C2CC(CN3CCC(c4ccc5c(c4)C4(CCCCC4)c4nc(=O)c6c(Br)cccc6n4-5)CC3)C2)C(C)(C)C)cc1 (stereo partly drawn) [Compound A21, (2S,4R)-1-((S)-2-(3-((4-(4′-bromo-5′-oxo-5′H-spiro[cyclohexane-1,7′-indolo[1,2-a]quinazolin]-9′-yl)piperidin-1-yl)methyl)cyclobutane-1-carboxamido)-3,3-dimethylbutanoyl)-4-hydroxy-N—((R)-1-(4-(4-methylthiazol-5-yl)phenyl)-2-morpholinoethyl)pyrrolidine-2-carboxamide] |  |  |  |  | SMARC A4 Hela HiBit Dmax(%) [1, 3]: C (C (50-69% degradation)); DC50 [1]: 100 to 500 nM; SMARC A2 Hela HiBit Dmax (%) [2, 5]: A (A (>90% degradation)); DC50 [2]: 100 to 500 nM |
| Cc1ncsc1-c1ccc([C@H](C)NC(=O)[C@@H]2C[C@@H](O)CN2C(=O)[C@H](C2CCN(C3CCOCC3)CC2)n2cc([C@H]3CC[C@H](CN4CCC(c5ccc6c(c5)-n5c(nc(=O)c7c(Cl)cccc75)C65CCCCC5)CC4)CC3)nn2)cc1 [Compound A112, (2S,4R)-1-((S)-2-(4-((1r,4S)-4-((4-(4′-chloro-5′-oxo-5′H-spiro[cyclohexane-1,7′-indolo[1,2-a]quinazolin]-10′-yl)piperidin-1-yl)methyl)cyclohexyl)-1H-1,2,3-triazol-1-yl)-2-(1-(tetrahydro-2H-pyran-4-yl)piperidin-4-yl)acetyl)-4-hydroxy-N—((S)-1-(4-(4-methylthiazol-5-yl)phenyl)ethyl)pyrrolidine-2-carboxamide] | 100 to 1000 | 50 to 69 | < 10 | > 90 |  |
| Cc1ncsc1-c1ccc([C@H](CN2CCOCC2)NC(=O)[C@@H]2C[C@@H](O)CN2C(=O)[C@H](C2CCOCC2)n2cc([C@H]3CC[C@H](CN4CCC(c5ccc6c(c5)-n5c(nc(=O)c7c(Cl)cccc75)C65CCCCC5)CC4)CC3)nn2)cc1 [Compound A100, (2S,4R)-1-((S)-2-(4-((1r,4S)-4-((4-(4′-chloro-5′-oxo-5′H-spiro[cyclohexane-1,7′-indolo[1,2-a]quinazolin]-10′-yl)piperidin-1-yl)methyl)cyclohexyl)-1H-1,2,3-triazol-1-yl)-2-(tetrahydro-2H-pyran-4-yl)acetyl)-4-hydroxy-N—((R)-1-(4-(4-methylthiazol-5-yl)phenyl)-2-morpholinoethyl)pyrrolidine-2-carboxamide] | > 1000 | 50 to 69 | < 10 | > 90 |  |
| Cc1ncccc1-c1ccc([C@H](CN2CCOCC2)NC(=O)[C@@H]2C[C@@H](O)CN2C(=O)[C@@H](n2cc([C@H]3CC[C@H](CN4CCC(c5ccc6c(c5)-n5c(nc(=O)c7c(Cl)cccc75)C65CCCCC5)CC4)CC3)nn2)C(C)(C)C)cc1 [Compound A174, (2S,4R)-1-((S)-2-(4-((1r,4S)-4-((4-(4′-chloro-5′-oxo-5′H-spiro[cyclohexane-1,7′-indolo[1,2-a]quinazolin]-10′-yl)piperidin-1-yl)methyl)cyclohexyl)-1H-1,2,3-triazol-1-yl)-3,3-dimethylbutanoyl)-4-hydroxy-N—((R)-1-(4-(2-methylpyridin-3-yl)phenyl)-2-morpholinoethyl)pyrrolidine-2-carboxamide] | > 1000 | < 50 | < 10 | > 90 |  |
| Cc1ncsc1-c1ccc([C@H](C)NC(=O)[C@@H]2C[C@@H](O)CN2C(=O)[C@@H](NC(=O)[C@H]2CC[C@H](CN3CCC(c4ccc5c(c4)-n4c(nc(=O)c6c(Br)cccc64)C54CCCCC4)CC3)CC2)C(C)(C)C)cc1 [Compound A41, (2S,4R)-1-((S)-2-((1r,4S)-4-((4-(4′-bromo-5′-oxo-5′H-spiro[cyclohexane-1,7′-indolo[1,2-a]quinazolin]-10′-yl)piperidin-1-yl)methyl)cyclohexane-1-carboxamido)-3,3-dimethylbutanoyl)-4-hydroxy-N—((S)-1-(4-(4-methylthiazol-5-yl)phenyl)ethyl)pyrrolidine-2-carboxamide] |  |  | < 100 |  | Dmax ([1]; HeLa, read-out: SMARC A4 Hela HiBit Dmax(%)): < 50%; SMARC A4 Hela HiBit DC50(nM) [1, 3]: No Fit; Dmax ([2]; HeLa): 70 to 90% |
| Cc1ncsc1-c1ccc([C@H](CN2CCC3(COC3)C2)NC(=O)[C@@H]2C[C@@H](O)CN2C(=O)[C@@H](n2cc([C@H]3CC[C@H](CN4CCC(c5ccc6c(c5)-n5c(nc(=O)c7c(Cl)cccc75)C6(C)C)CC4)CC3)nn2)C(C)(C)C)cc1 [Compound A99, (2S,4R)-1-((S)-2-(4-((1r,4S)-4-((4-(4-chloro-7,7-dimethyl-5-oxo-5,7-dihydroindolo[1,2-a]quinazolin-10-yl)piperidin-1-yl)methyl)cyclohexyl)-1H-1,2,3-triazol-1-yl)-3,3-dimethylbutanoyl)-4-hydroxy-N—((R)-1-(4-(4-methylthiazol-5-yl)phenyl)-2-(2-oxa-6-azaspiro[3.4]octan-6-yl)ethyl)pyrrolidine-2-carboxamide] | > 1000 | < 50 | < 10 | > 90 |  |
| Cc1ncsc1-c1ccc([C@H](CN2CC3(COC3)C2)NC(=O)[C@@H]2C[C@@H](O)CN2C(=O)[C@@H](n2cc([C@H]3CC[C@H](CN4CCC(c5ccc6c(c5)-n5c(nc(=O)c7c(Cl)cccc75)C65CCCCC5)CC4)CC3)nn2)C(C)(C)C)cc1 [Compound A96, (2S,4R)-1-((S)-2-(4-((1r,4S)-4-((4-(4′-chloro-5′-oxo-5′H-spiro[cyclohexane-1,7′-indolo[1,2-a]quinazolin]-10′-yl)piperidin-1-yl)methyl)cyclohexyl)-1H-1,2,3-triazol-1-yl)-3,3-dimethylbutanoyl)-4-hydroxy-N—((R)-1-(4-(4-methylthiazol-5-yl)phenyl)-2-(2-oxa-6-azaspiro[3.3]heptan-6-yl)ethyl)pyrrolidine-2-carboxamide] | > 1000 | 50 to 69 | < 10 | > 90 |  |
| Cc1ncsc1-c1ccc([C@H](CO)NC(=O)[C@@H]2C[C@@H](O)CN2C(=O)[C@H](C2CCCCC2)n2cc([C@H]3CC[C@H](CN4CCC(c5ccc6c(c5)-n5c(nc(=O)c7c(Cl)cccc75)C65CCCCC5)CC4)CC3)nn2)cc1 [Compound A126, (2S,4R)-1-((S)-2-(4-((1r,4S)-4-((4-(4′-chloro-5′-oxo-5′H-spiro[cyclohexane-1,7′-indolo[1,2-a]quinazolin]-10′-yl)piperidin-1-yl)methyl)cyclohexyl)-1H-1,2,3-triazol-1-yl)-2-cyclohexylacetyl)-4-hydroxy-N—((R)-2-hydroxy-1-(4-(4-methylthiazol-5-yl)phenyl)ethyl)pyrrolidine-2-carboxamide] | 10 to 100 | 50 to 69 | < 10 | > 90 |  |
| Cc1ncsc1-c1ccc([C@H](C)NC(=O)[C@@H]2C[C@@H](O)CN2C(=O)[C@@H](NC(=O)C23CCC(CN4CCC(c5ccc6c(c5)C5(CCCCC5)c5nc(=O)c7c(Br)cccc7n5-6)CC4)(CC2)CC3)C(C)(C)C)cc1 [Compound A27, (2S,4R)-1-((S)-2-(4-((4-(4′-bromo-5′-oxo-5′H-spiro[cyclohexane-1,7′-indolo[1,2-a]quinazolin]-9′-yl)piperidin-1-yl)methyl)bicyclo[2.2.2]octane-1-carboxamido)-3,3-dimethylbutanoyl)-4-hydroxy-N—((S)-1-(4-(4-methylthiazol-5-yl)phenyl)ethyl)pyrrolidine-2-carboxamide] |  |  |  |  | Dmax ([1]; Hela SMARCA4-HiBiT cells, 24 hours treatment, read-out: SMARC A4 Hela HiBit Dmax(%)): 50 to 69%; DC50 [1]: 501 to 1000 nM; Dmax ([2]; HeLa): 70 to 90%; DC50 [2]: < 100 nM |
